Measured values as given in patent publication EP0031561B1, “A rectally administered suppository comprising a drug and an adjuvant” (Merck & Co., Inc., priority 1979, dated 1981).

What was measured:
[1] = dog, in vivo
Description: Four male beagle dogs weighing 9.5-11 kg are used and are fasted for two days prior to experimentation. Witepsol H-15 is used as an excipient to prepare the suppository formulation of cefmetazole. Microenema formulations are prepared with aqueous 0.02M phosphate buffer with a final pH of 7.4. Either a 1 g suppository or a 1 ml microenema is given to each dog. The formulations may contain varying amounts of adjuvant. Blood samples are taken from the foreleg vein at predetermined sampling times after dosing. Blood samples are heparinized and centrifuged at 3,000 rpm for 10 minutes. The concentration of cefmetazole in the plasma of the dogs is analyzed as a function of time using plasma aliquots for the assay of cefmetazole.

[2] = in situ perfusion method of the rectum (perfusate recirculated through the rat rectum; drug remaining in the perfusate)
Description: In this experiment, the amount of remaining theophylline, originally at a concentration of about 200 mg/ml, in aqueous solution and continually recirculated or perfused to the rectal compartment of the rat, at the end of one hour, is shown as the lower plot for studies carried out in the presence of 0.2% sodium salicylate, is shown as the upper plot.
A second cannula is inserted through the anus 1 cm inside the rectum and secured by ligation. Thus, about 2 cm of the rectum is exposed to the perfusate. The perfustate (6 ml) is circulated at a rate of 2 ml/min at 38°C. As perfustate, 1/15 M-phosphate buffer solutions are used and the ionic strength of the perfusate is adjusted to 0.75 with sodiumchloride as necessary. […] The amount of drug remaining in the perfusate is analyzed as a function of time by appropriate methods, e.g., by high-pressure liquid chromatography.
A second cannula is inserted through the anus 1 cm. inside the rectum and secured by ligation. Thus, about 2 cm of the rectum is exposed to the perfusate. The perfusate (6 ml) is circulated at a rate of 2 ml/min at 38°C. As perfusate, 1/15 M-phosphate buffer solutions are used and the ionic strength of the perfusate is adjusted to 0.75 with sodium chloride as necessary. […] The amount of drug remaining in the perfusate is analyzed as a function of time by appropriate methods, e.g. by high-pressure liquid chromatography.

CO[C@@]1(NC(=O)CSCC#N)C(=O)N2C(C(=O)O)=C(CSc3nnnn3C)CS[C@@H]21 [cefmetazole, Cefmetazole]
bioavailability, suppository formulations versus microenema formulations [1]: greater bioavailability
rectal absorption of cefmetazole [1]: significantly enhanced

O=C(O)c1cc(O)ccc1O [gentisic acid]
adjuvant effect on the rectal absorption ([2]; Figure 4 (theophylline)): evident

Cn1c(=O)c2[nH]cnc2n(C)c1=O [theophylline, 3,7-Dihydro-1,3-dimethyl-1H-purine-2,6-dione]
effect of the salicylate on the rate of absorption of theophylline from the rectal compartment ([2]; Figure 1, theophylline about 200 mg/ml aqueous solution, amount remaining at end of one hour, 0.2% sodium salicylate, effect greatest below pH 5.5 and above pH 7.5): marked effect
